Test results as given in ChEMBL document CHEMBL1129375, “Design and synthesis of a series of non-peptide high-affinity human corticotropin-releasing factor1 receptor antagonists” (J Med Chem, 1996).

Legend:
[1] = molecular target: T1, Corticotropin-releasing factor receptor 1 (Homo sapiens, UniProt P34998); test: Inhibition of [125I]CRF binding to human Corticotropin releasing factor receptor 1 tested at 6-12 doses
T1 sequence (P34998 whole entry): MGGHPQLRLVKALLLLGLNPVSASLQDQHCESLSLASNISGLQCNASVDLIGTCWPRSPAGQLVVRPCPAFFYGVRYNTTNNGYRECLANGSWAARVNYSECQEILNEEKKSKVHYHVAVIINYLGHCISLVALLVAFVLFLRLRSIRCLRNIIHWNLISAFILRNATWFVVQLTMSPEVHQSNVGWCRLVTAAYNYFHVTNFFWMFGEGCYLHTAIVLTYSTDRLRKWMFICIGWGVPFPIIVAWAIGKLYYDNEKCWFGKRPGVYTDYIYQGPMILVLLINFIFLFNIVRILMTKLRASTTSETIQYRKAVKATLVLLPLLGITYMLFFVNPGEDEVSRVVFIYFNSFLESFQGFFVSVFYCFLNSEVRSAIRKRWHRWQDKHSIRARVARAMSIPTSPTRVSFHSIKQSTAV

Homo sapiens = organism: Homo sapiens; test: Compound was evaluated for the inhibition of CRF-stimulated cyclic adenosine monophosphate production; format: functional, organism-based

Structure (SMILES) | Ki [1] [nM] | IC50 (Homo sapiens) [nM]
CCCN(CC1CC1)c1nc(C)cc(Nc2c(Cl)cc(Cl)cc2Cl)n1 | > 10000 | –
CCCN(CC1CC1)c1cc(C)nc(Nc2c(Cl)cc(Cl)cc2Cl)n1 | 70 | –
CCCN(CC1CC1)c1nc(C)nc(Nc2c(Cl)cc(Cl)cc2Cl)c1Br | 2 | –
CCCN(CC1CC1)c1nc(C)nc(N(C)c2c(Cl)cc(Cl)cc2Cl)c1C | 150 | –
CCCN(CC1CC1)c1nc(C)nc(Nc2c(Cl)cc(Cl)cc2Cl)c1Cl | 1.7 | 100
CCCN(CCC)c1nc(C)nc(Nc2c(Cl)cc(Cl)cc2Cl)c1C | 2.5 | 250
CCCN(CC1CC1)c1nc(C)nc(Nc2c(Cl)cc(Cl)cc2Cl)c1CC | 3.8 | –

Results, then the molecule that gave them:

Ki [1] [nM] | IC50 (Homo sapiens) [nM] | Structure (SMILES)
> 10000 | – | CCCN(CC1CC1)c1cc(Nc2c(Cl)cc(Cl)cc2Cl)ncn1
2.3 | – | CCCN(CC1CC1)c1nc(C)nc(Nc2c(Cl)cc(Cl)cc2Cl)c1C
30 | 3700 | CCCN(CC1CC1)c1cc(Nc2c(Cl)cc(Cl)cc2Cl)nc(C)n1
